According to article PMC3560175 (Virology Journal, 2012):

Experiments:
[1] = system: early and late HIV-1 reverse transcription products; assay: Real-time PCR quantitation of early and late viral DNA in infected 293T cells; assay type: cell-based; settings: 5 μM added 1 hr before infection, 24 hrs post infection
[2] = system: Y181C RT mutant VSV-G pseudotyped HIV-1 vector; assay type: cell-based; settings: read-out: Antiviral EC50 Y181C
pLai3Luc2 HIV-1 vector = assay: microbe, parasite or virus in culture; assay type: cell-based
[3] = system: VSVg-pseudotyped HIV-1 vector; assay type: cell-based
[4] = system: wild type VSV-G pseudotyped HIV-1 vector; assay: microbe, parasite or virus in culture; assay type: cell-based; settings: Human immunodeficiency virus 1, HEK-293T; 293T cells, average ± SD of two independent experiments in duplicate; read-out: Antiviral EC50 wt
[5] = target: T1, HIV-1 reverse transcriptase (RT) (Human immunodeficiency virus type 1 group M subtype B, UniProt P03366); assay: biochemical
T1 construct: recombinant purified HIV-1 reverse transcriptase (RT) activity; purchased Ambion, Austin, TX

[6] = system: VSVg-pseudotyped HIV-1 vector (pNL4-3LucR+E-); assay: microbe, parasite or virus in culture; assay type: cell-based
[7] = system: Y188L RT mutant VSV-G pseudotyped HIV-1 vector; assay type: cell-based; settings: read-out: Antiviral EC50 Y188L
[8] = system: K103N RT mutant VSV-G pseudotyped HIV-1 vector; assay type: cell-based; settings: read-out: Antiviral EC50 K103N
[9] = system: HIV-1 vector (NL4-3 Nef + IRES rluc); assay: microbe, parasite or virus in culture; assay type: cell-based
[10] = system: V106A RT mutant VSV-G pseudotyped HIV-1 vector; assay type: cell-based; settings: read-out: Antiviral EC50 V106A
in vitro = settings: human

Description for PBMCs: PBMCs were activated in PBMC Growth Medium (RPMI 1640 with 15% FBS, Pen/Strep, 25 mM HEPES, 100 U/ml IL-2) supplemented with 5 μg/ml PHA-P. Two days after activation, the PBMC’s were maintained in the same medium (without PHA-P) for 3 more days. Aliquots of 2x10^4 PBMCs were then plated in 80 μl PBMC Growth Medium in each well of white 96 well plates (CoStar) and returned to the incubator overnight. […] Eight replicate samples were then set up, with 10 μl aliquots of the serially-diluted compounds added to the cells, and preincubated at 37°C for one hour prior to virus challenge. The cells were then challenged with 10 μl per well of the NL4-3 Nef+ IRES rluc virus vector bringing the total volume in each well to 100 μl final. The plates were incubated at 37°C for five days and then viral infection was monitored by adding 100 μl per well of Renilla-Glo Luciferase Reagent (Promega) and measuring the resultant luciferase activities using a Topcount-HTS (PerkinElmer). Cell toxicity was assessed on a duplicate plate of samples by adding 100 μl Cell-Titer Glo Reagent (Promega) and reading on a Topcount-HTS.

Row | SMILES | synthesis of early and late viral DNA products [1] | EC50 [2] [nM] | selectivity index (pLai3Luc2 HIV-1 vector) | EC50 (pLai3Luc2 HIV-1 vector; Human immunodeficiency virus 1, CEM-GFP, 48 h) [nM] | cell toxicity (PBMCs) | combination effect with AZT (isobologram) [3] | combination effect with NVP (isobologram) [3] | EC50 [4] [nM] | IC50 [5] [nM] | decrease of luciferase activity (library screen) [6] | selectivity index [6] | EC50 ([6]; Human immunodeficiency virus 1, HEK-293T, read-out: EC50 (luciferase-based infectivity)) [nM] | EC50 [7] [nM] | EC50 [8] [nM] | selectivity index [9] | EC50 ([9]; Human immunodeficiency virus 1, NL43, PBMC, 120 h) [nM] | EC50 [10] [nM] | CC50 at 24 h (in vitro) [nM] | CC50 (in vitro) [nM]
1 | Clc1ccccc1-c1nc2ccccn2c1NC1CCCCC1 [F2] | blocked the synthesis of both early and late viral DNA products | 1680 ± 271 | 29.5 | 862 ± 88 | absence of cell toxicity | synergy | additivity | 165 ± 39 | 2550 ± 365 | more than 50% | 88.1 | 387 ± 46 | > 20000 | 3230 ± 127 | > 11.6 | 865 ± 222 | 1280 ± 357 | – | –
2 | Cc1cn([C@H]2C[C@H](N=[N+]=[N-])[C@@H](CO)O2)c(=O)[nH]c1=O [AZT, 3’-azido-3’-deoxythymidine] | – | 6 | – | – | – | – | – | 14 ± 3 | – | – | – | – | 11 ± 5 | 14 ± 2 | – | – | 15 ± 1 | > 50000 | –
3 | Cc1ccnc2c1NC(=O)c1cccnc1N2C1CC1 [NVP, nevirapine] | – | 2879 ± 6 | – | – | – | – | – | 19 ± 2 | – | – | – | – | > 20000 | 841 ± 49 | – | – | 1260 ± 159 | – | > 50000
